For experiment [1], the system named is NMDA-induced hyperalgesia. Kind of experiment: hyperalgesia induced by intrathecal NMDA. Type of experiment: in vivo, rat. The following applies: IT NMDA 0.3 μg; MK801 10 μg, IT SD 3-60 μg, IT SB 1-30 μg, SA 10 μg. An excerpt: Male Sprague-Dawley rats (300-350 g) were implanted under isoflurane anesthesia with lumbar polyethylene (PE-10) catheters according to a modified method originally described in Physiol. Behav. 17, 1031 (1976). […] IT saline and 5% DMSO alone had no effect on behavior or protein expression/phosphorylation.

The subject of the next experiment is mechanical hyperalgesia. Kind of experiment: mechanical hyperalgesia, Randall Selitto test, intraplantar carrageenan. Type of experiment: in vivo, Sprague Dawley Rats. Here is the method:
The effects of p38 MAP kinase inhibitors on Mechanical and Thermal Hyperalgesia were evaluated as follows. Sprague Dawley Rats were evaluated in carageenan induced models whereby an intraplantar injection of carageenan was made into the left paw. At approximately 2 and 4 hour post carageenan, the left hind limb of each rat was assessed for the development of thermal hyperalgesia relative to a p38 MAP kinase inhibitor (SC), vehicle, indomethacin, and the vehicle for indomethacin. Indomethacin, a known nonsteroidal analgesic, was used as a control reference in this study. Assessment of mechanical and thermal hyperalgesia was accomplished through the use of a Randall Selitto Analgesiometer and the Hargreaves Plantar Device, respectively. Approximately 10 minutes after intraperitoneal dosing, or 30 minutes following oral indomethacin treatment, each animal was lightly anaesthetized (isoflurane in oxygen) and an intraplantar injection of carageenan was made into the left paw. Animals were allowed to recover from anesthesia. Mechanical hyperalgesia was tested using the Randall-Selittlo test. Randall, L. & Selitto, J., Arch Int Pharmacodyn (1957) 110:409-419. The carageenan model was established as set forth above. […] In the same animals treated with SC, the paw withdrawal threshold increased from a pre dose threshold of 159±8 g to 177±17 g, 2 hours post-carrageenan. […] As set forth in Example 2 above, Sprague Dawley rats were evaluated in the intraplantar carageenan model. The animals were administered the p38 MAP kinase inhibitor SA, vehicle, indomethacin, and the vehicle for indomethacin. After dosing, the animals were assessed for the development of mechanical hyperalgesia and thermal hyperalgesia using the Randall Selitto Analgesiometer and the Hargreaves Plantar Device, respectively.

For a further experiment, the system named is thermal hyperalgesia. The experiment is described as follows: thermal hyperalgesia, Plantar test (Hargreaves), intraplantar carrageenan. Type of experiment: in vivo, Sprague Dawley Rats. The protocol: The effects of p38 MAP kinase inhibitors on Mechanical and Thermal Hyperalgesia were evaluated as follows. Sprague Dawley Rats were evaluated in carageenan induced models whereby an intraplantar injection of carageenan was made into the left paw. At approximately 2 and 4 hour post carageenan, the left hind limb of each rat was assessed for the development of thermal hyperalgesia relative to a p38 MAP kinase inhibitor (SC), vehicle, indomethacin, and the vehicle for indomethacin. Indomethacin, a known nonsteroidal analgesic, was used as a control reference in this study. Assessment of mechanical and thermal hyperalgesia was accomplished through the use of a Randall Selitto Analgesiometer and the Hargreaves Plantar Device, respectively. Approximately 10 minutes after intraperitoneal dosing, or 30 minutes following oral indomethacin treatment, each animal was lightly anaesthetized (isoflurane in oxygen) and an intraplantar injection of carageenan was made into the left paw. Animals were allowed to recover from anesthesia. As set forth above in the carageenan model, the effect of SC was evaluated with respect to attenuation of the development of thermal hyperalgesia at either of the 2 and 4 hours post-carrageenan time points tested. As above with respect to mechanical hyperalgesia, observation of statistically significant thermal hyperalgesia development was made at both the 2 and 4 hour periods (8.2±1.5 s; P≦0.05 and 7.0±1.5 s; P≦0.01, respectively), compared to vehicle pre dose measurements (12.7±1.0 s). […] As set forth in Example 2 above, Sprague Dawley rats were evaluated in the intraplantar carageenan model. The animals were administered the p38 MAP kinase inhibitor SA, vehicle, indomethacin, and the vehicle for indomethacin. After dosing, the animals were assessed for the development of mechanical hyperalgesia and thermal hyperalgesia using the Randall Selitto Analgesiometer and the Hargreaves Plantar Device, respectively.

A further experiment concerns the target T1, p38 MAPK (Homo sapiens, UniProt Q16539).
T1 construct: expressed in transfected cells; host or cells: HeLa (kinase immunoprecipitated from lysates of transfected, stimulated cells)
Kind of experiment: p38 MAPK phosphorylation assay (similar to Kumar). Type of experiment: biochemical. The protocol:
Alternative assays involving in vitro analysis of potential inhibitors include those where cells (HeLa) transfected with DNA coding for relevant kinases can be activated with substances such as sorbitol, IL-1, TNF, or PMA (phorbol myristate acetate). After immunoprecipitation of cell lysates, equal aliquots of immune complexes of the kinases are pre-incubated for an adequate time with a specific concentration of the potential inhibitor followed by addition of kinase substrate buffer mix containing labeled ATP and GST-ATF2 or MBP. After incubation, kinase reactions are ceased by the addition of SDS loading buffer. Phosphorylated substrate is resolved through SDS-PAGE and visualized and quantitated in a phosphorimager. Both p38 regulation, in terms of phosphorylation, and IC50 values can be determined by quantitation. […] Res. Commun. […]

The test system of experiment [2] is carrageenan-induced thermal hyperalgesia. The experiment is described as follows: carrageenan-induced thermal hyperalgesia (Hargreaves-type device). Type of experiment: in vivo, rat. The following applies: intravenous administration, pre injury. Here is the method:
Hyperalgesia was induced in the rat's right hindpaw by intraplantar injection of carrageenan (2 mg in 0.1 ml of a […] solution (weight/volume) in physiological saline). To assess the thermally evoked paw withdrawal time, a device modeled after that described by Hargreaves (1988) was used. See Hargreaves K, Dubner R, Brown F, Flores C, Joris J. A new and sensitive method for measuring thermal nociception in cutaneous hyperalgesia, Pain, 32, 77-88 (1988). The device consisted of a glass surface on top of which the rats were placed. The glass surface was heated by a focused projection bulb below the glass surface. The first sign of discomfort is usually expressed as an attempt to sit up and lick the forepaws by the experimental animal. This response indicates a threshold of pain under the predetermined conditions. Dancing and jumping about by an undrugged animal is an indicator of unbearable pain; whereas drugged animals more commonly withdraw the hind paws and keep them close to their abdomen. A timer was actuated with the light source and latency defined as the time required for the paw to be withdrawn from the glass surface. See Dirig D M, Isakson P C, and Yaksh T L. J Pharmacol Exp Ther., 285, 1031-8 (1998).

The test system of experiment [3] is discomfort of a dental procedure. The experiment is described as follows: pain associated with a dental procedure. Type of experiment: in vivo. The following applies: approximately 1 hours before the procedure; SF 40 mg/kg, SG 20 mg/kg. Here is the method: A subject scheduled for a dental procedure, the filling of a cavity in a tooth, is administered approximately 40 mg/kg of the p38 MAP kinase inhibitor SF approximately 1 hours before the procedure is to begin. No other analgesics or anesthetics are administered.
A subject scheduled for a dental procedure, the filling of a cavity in a tooth, is administered approximately 20 mg/kg of the p38 MAP kinase inhibitor SG approximately 1 hours before the procedure is to begin. No other analgesics or anesthetics are administered.

Experiment [4] concerns post-activity related discomfort. Kind of experiment: pain associated with athletic endeavor. Type of experiment: in vivo. The following applies: before a long distance race; SH 50 mg/kg, SI 20 mg/kg, SM 40 mg/kg. Here is the method: A subject preparing for an athletic endeavor, the running of a long distance race, is administered approximately 50 mg/kg of SH approximately 30 minutes before the endeavor is to begin. No other analgesics or anesthetics are administered. The athlete participates in and completes the endeavor.
A subject preparing for an athletic endeavor, the running of a long distance race, is administered approximately 20 mg/kg of SI approximately 1 hours before the endeavor is to begin. No other analgesics or anesthetics are administered. The athlete participates in and completes the endeavor.
A subject preparing for an athletic endeavor, the running of a long distance race, is administered approximately 40 mg/kg of SM approximately 1 hours before the endeavor is to begin. No other analgesics or anesthetics are administered. The athlete participates in and completes the endeavor.

Experiment [5] deals with recovery from the procedure. Kind of experiment: adjunct to opioid anesthesia for Cesarean section. The following applies: in opioid solution, subarachnoid; SL 60 mg/kg, SJ 630 mg/kg, SK 50 mg/kg. Type of experiment: in vivo.
Description: A person scheduled for a Cesarean section is prepared according to standard guidelines. A subarachnoid block is performed in the sitting position, following the administration of 1-2 liters of crystalloid solution. Skin infiltration with local anaesthetic is performed at the L2-3 or L3-L4 interspace. A spinal needle introducer is used to facilitate insertion of the needle into the patient. The needle is introduced into the epidural space and perforates the dura. The emergence of cerebrospinal fluid indicates proper placement of the needle. An opiod solution containing approximately 60 mg/kg of SL is administered and injected slowly of a ten to fifteen second time interval. […] The needle is then removed and resulting wound is dressed. The Cesarean section proceeds according to a standard protocol.
A person scheduled for a Cesarean section is prepared according to standard guidelines. A subarachnoid block is performed in the sitting position, following the administration of 1-2 liters of crystalloid solution. Skin infiltration with local anaesthetic is performed at the L2-3 or L3-L4 interspace. A spinal needle introducer is used to facilitate insertion of the needle into the patient. The needle is introduced into the epidural space and perforates the dura. The emergence of cerebrospinal fluid indicates proper placement of the needle. An opiod solution containing approximately 630 mg/kg of SJ is administered and injected slowly of a ten to fifteen second time interval. […] The needle is then removed and resulting wound is dressed. The Cesarean section proceeds according to a standard protocol.
A person scheduled for a Cesarean section is prepared according to standard guidelines. A subarachnoid block is performed in the sitting position, following the administration of 1-2 liters of crystalloid solution. Skin infiltration with local anaesthetic is performed at the L2-3 or L3-L4 interspace. A spinal needle introducer is used to facilitate insertion of the needle into the patient. The needle is introduced into the epidural space and perforates the dura. […]
The mark [6] stands for this setting: assay similar to the phosphorylation assay (Kumar), read-out: p38 MAPK activity, relative IC50 value.

pIC50: −log10 of the molar value. Like-named read-outs stand apart in the source and are kept apart here.

The source of these data is patent US20080039461A1, “Treatment of pain by inhibition of p38 map kinase” (priority 2002, published 2008).

T1 sequence (Q16539 whole entry): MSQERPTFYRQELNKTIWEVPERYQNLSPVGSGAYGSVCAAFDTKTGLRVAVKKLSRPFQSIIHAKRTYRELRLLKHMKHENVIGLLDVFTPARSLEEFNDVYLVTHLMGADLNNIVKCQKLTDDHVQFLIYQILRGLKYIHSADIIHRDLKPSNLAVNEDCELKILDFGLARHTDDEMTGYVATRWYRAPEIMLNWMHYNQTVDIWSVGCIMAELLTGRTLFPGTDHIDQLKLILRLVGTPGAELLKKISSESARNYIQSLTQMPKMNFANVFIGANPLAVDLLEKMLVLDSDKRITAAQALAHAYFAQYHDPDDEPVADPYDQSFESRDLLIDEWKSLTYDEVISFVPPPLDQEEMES

For `C[C@]12N[C@H](Cc3ccccc31)c1ccccc12` [MK801], the “hyperalgesia induced by IT NMDA” value in experiment [1] was “reversed”.

For `COc1cc2c(cc1C(=O)N1CC(C)C(Cc3ccc(F)cc3)CC1C)c(C(=O)C(=O)N(C)C)cn2C` (stereo not drawn) [SA], the paw withdrawal threshold with mechanical hyperalgesia (Example 3, oral, 30 minutes prior to carrageenan, 4 hours) was found to be 159 ± 19 g. Besides, the “attenuation of thermal hyperalgesia” value in the experiment on thermal hyperalgesia (Example 3, oral, lower dose levels) is listed as “no significant attenuation”. Besides, the withdrawal latency in the experiment with thermal hyperalgesia (Example 3, oral, 4 hours) was determined as 11.1 ± 1.4 s. Further, on p38 MAPK (setting [6]), the pIC50 (in general, −log10 of the IC50, conventionally taken in molar units) was more than 8.30.

Regarding `C[C@@H]1CN(Cc2ccc(F)cc2)[C@@H](C)CN1C(=O)c1cc2c(C(=O)C(=O)N(C)C)cn(C)c2cc1Cl` [SC], the paw withdrawal threshold was determined as 177 ± 17 g in the experiment with mechanical hyperalgesia (Example 2, SC intraperitoneal, 2 hours post-carrageenan) and 153 ± 14 g with mechanical hyperalgesia (Example 2, SC intraperitoneal, 4 hour post-carrageenan). Further, the withdrawal latency in the experiment on thermal hyperalgesia (Example 2, first of two dose levels (not given), 2 hours) stood at 11.5 ± 1.1 s; with thermal hyperalgesia (Example 2, first of two dose levels (not given), 4 hours), 10.2 ± 1.5 s; in the experiment with thermal hyperalgesia (Example 2, second of two dose levels (not given), 2 hours), 11.6 ± 1.1 s; with thermal hyperalgesia (Example 2, second of two dose levels (not given), 4 hours), 10.2 ± 0.9 s.

`COc1cc2[nH]cc(C(=O)C(=O)N(C)C)c2cc1C(=O)N1CC(C)N(Cc2ccc(F)cc2)CC1C` (stereo not drawn) [SE]: the carageenan induced hyperalgesia entry in experiment [2] is recorded as “Attenuation of the carageenan induced hyperalgesia”. Moreover, the pIC50 on p38 MAPK (setting [6]) is more than 8.30.

Consider `COc1cc2c(cc1C(=O)N1CCC(Cc3ccc(F)cc3)CC1)c(C(=O)C(=O)O)cn2C` [SF], for which the “discomfort during dental procedure” value in experiment [3] is “reduced level of discomfort”. For the same molecule, at p38 MAPK (setting [6]), the pIC50 is more than 8.30.

On to `COc1cc2c(cc1C(=O)N1CCC(Cc3ccc(F)cc3)CC1)c(C(=O)C(=O)N1CCN(C)CC1)cn2C` [SG], for which, in experiment [3], the “discomfort during dental procedure” value is recorded as “reduced level of discomfort”. Also, the negative logarithm of the IC50 (pIC50) at p38 MAPK (setting [6]) was more than 8.30.

Turning to `Cn1cc(C(=O)C(=O)N2CCCC2)c2cc(C(=O)N3CCC(Cc4ccc(F)cc4)CC3)c(Cl)cc21` [SH], in experiment [4], the post-activity related discomfort result is “reduced level of post-activity related discomfort”. The pIC50 at p38 MAPK (setting [6]) was more than 8.30.

Turning to `COCn1cc(C(=O)C(=O)N(C)C)c2cc(C(=O)N3C[C@H](C)N(Cc4ccc(F)cc4)C[C@H]3C)c(OC)cc21` [SI], in experiment [4], the post-activity related discomfort entry was “reduced level of post-activity related discomfort”. At p38 MAPK, this molecule gave a pIC50 of more than 8.30.

Regarding `C[C@@H]1CN(Cc2ccc(F)cc2)[C@@H](C)CN1C(=O)c1cc2c(C(=O)C(=O)N3CCOCC3)cn(C)c2cc1Cl` [SJ], the “recovery after Cesarean section” value in experiment [5] was “recovers more rapidly from the procedure”. Further, on p38 MAPK (setting [6]), the pIC50 is more than 8.30.

On to `COc1cc2[nH]cc(C(=O)C(=O)N3CCOCC3)c2cc1C(=O)N1CCC(Cc2ccc(F)cc2)CC1` [SK], for which, in experiment [5], the “recovery after Cesarean section” value is on record as “recovers more rapidly from the procedure”. Also, the pIC50 at p38 MAPK (setting [6]) is more than 8.30.

`Cc1[nH]c2cc(Cl)c(C(=O)N3CCC(Cc4ccc(F)cc4)CC3)cc2c1C(=O)C(=O)N1CCN(C)CC1` [SL]: the “recovery after Cesarean section” value in experiment [5] was “recovers more rapidly from the procedure”. The pIC50 at p38 MAPK (setting [6]) was more than 8.30.

As for `COc1cc2c(cc1C(=O)N1CCC(=Cc3ccc(F)cc3)CC1)c(C(=O)C(=O)N(C)C)cn2C` [SM], in experiment [4], the post-activity related discomfort result is listed as “reduced level of post-activity related discomfort”. Also, on p38 MAPK (setting [6]), the pIC50 is more than 8.30.

On to `COc1ccc2c(c1)c(CC(=O)O)c(C)n2C(=O)c1ccc(Cl)cc1` [indomethacin, reference compound], for which the paw withdrawal threshold with mechanical hyperalgesia (Example 2, oral 10 mg/kg, 2 hours) was found to be 180 ± 21 g; in the experiment with mechanical hyperalgesia (Example 2, oral 10 mg/kg, 4 hours) it was 188 ± 17 g; in the experiment on mechanical hyperalgesia (Example 3, oral 10 mg/kg, 4 hours), 177 ± 16 g. Further, the “increase of withdrawal latency” value in the experiment on thermal hyperalgesia (Example 2, 10 mg/kg p.o., 2 hours post-carrageenan) was “not significant”. Moreover, the withdrawal latency in the experiment with thermal hyperalgesia (Example 2, 10 mg/kg p.o., 4 hours) is 12.5 ± 1.4 s; in the experiment with thermal hyperalgesia (Example 3, 10 mg/kg p.o., 2 hours), 13.1 ± 0.9 s; in the experiment on thermal hyperalgesia (Example 3, 10 mg/kg p.o., 4 hours), 9.3 ± 1.3 s.
